# Source: a melting point compilation (Tetko et al.; mined from patent text by program, amines drawn as free bases though some values may be those of a salt)
row,SMILES,melting point [°C]
1,CC(=O)C[C@@H]1c2cc(C#N)ccc2OC(C)(C)[C@H]1O (relative stereo),114 to 115
2,COC(=O)c1ccsc1N/C=C(\C#N)C(=O)OC(C)(C)C,154 to 157
3,COc1cc(OC)c(-c2cccs2)cc1/C=C/C(=O)c1ccc(S(=O)(=O)NCCN2CCOCC2)cc1,171 to 172
4,COC(=O)C(Cc1ccc(Cl)cc1)NC(=O)C1CCC(CNC(=O)OC(C)(C)C)CC1 (stereo not given),178 to 179
5,CCCCCCCCCCCCc1nnn(CC(=O)Nc2c(OC)cc(OC)cc2OC)n1,144 to 146
6,CCCC(=O)OCC(=O)C1(OC(=O)CC)CCC2C3CC(C)C4=CC(=O)CCC4(C)C3C(O)CC21C (stereo not given),211
7,CC(C)(C)OC(=O)NC12CCC1CN(Cc1ccccc1)C2 (stereo not given),69 to 70
8,CCCN(CCC)C1Cc2cccc3c2N(C1)C(=O)C3 (stereo not given),86 to 88
9,CC(=O)OCC1OC(n2cc(Cc3ccc(Cl)cc3)c3c(Cl)cccc32)C(OC(C)=O)C(OC(C)=O)C1OC(C)=O (stereo not given),214 to 216
10,C=C(Cn1ccnc1)c1ccccc1OCc1ccc(-c2ccccc2)cc1,90 to 92
11,Nc1nc2cc(OCC(=O)N3CCOCC3)ccc2c2c1nc1n2CCOC1,204 to 206
12,CCCCCCCCCCCCS(=O)c1c(O)cc(C)oc1=O (stereo not given),80
13,CCC(=NOC)c1cccc(Oc2nc(OC)cc(OC)n2)c1C(=O)OC,75 to 77
14,CC(C)(O)Cn1c(CO)nc2c(N)nc3cc(CCCNS(C)(=O)=O)ccc3c21,202 to 205
15,O[C@@H]1CN(CCNc2ncccn2)CC[C@H]1NCc1ccccc1 (relative stereo),127
16,O=[N+]([O-])N=C1SCCN1Cc1ccc(Cl)nc1,137 to 138

row,SMILES,melting point [°C]
1,CCN=C(NCc1ccccc1)NN=Cc1c(Cl)cccc1Cl,101 to 103
2,Oc1ccc(Nc2cc(-c3ccccc3)[nH]n2)cc1,215 to 217
3,COc1ccc(C2=NN(c3nc(C)ccc3C(F)(F)F)C(=O)C3CC=CCC23)cc1Cl (stereo not given),156 to 157
4,O=[N+]([O-])c1cn2c(n1)O[C@@H](COc1ccc(N3CCN(S(=O)(=O)C(F)(F)C(F)(F)C(F)(F)C(F)(F)F)CC3)cc1)CC2,235 to 236
5,CCc1c(-c2ccc(OCc3ccccc3)cc2)c2c(CO)cc3c(OCc4ccccc4)ccc1n32,133 to 134
6,CC(C)(C)Sc1c(-c2ccc(S(C)(=O)=O)cc2)cnn(CC(F)(F)F)c1=O,186 to 189
7,Cc1ccc(S(=O)(=O)N2CC3=C(CNCC3)C2)cc1,201
8,COC(=O)NC(=N)CC(C)C,82 to 86
9,Cc1c(F)c(Oc2cc(C(F)(F)F)nn2C)nc(Oc2cc(C(F)(F)F)nn2C)c1F,101
10,CCOC(=O)C1=Cc2cc(Cl)cc(-c3cccc(OC)c3)c2OC1C(F)(F)F (stereo not given),93.7 to 95.1
11,O=C(c1ccccc1Cl)c1cc(Cl)ccc1I,64 to 66
12,COc1nc2ccccc2nc1NC(=O)N1CCN(c2cccc(Br)c2)CC1,148 to 150
13,CCOC(=O)Cc1ccc(NC(=O)c2cc(Cl)ccc2OC)cc1,104
14,COc1ccc(-c2cc(C(=O)NCc3ccccc3)c(=O)n(CC3CCCC3)n2)cc1,108
15,Cc1cccc(C)c1NC(C)CN(C)C=O (stereo not given),69.5 to 72

# Continued, values first:
row,melting point [°C],SMILES
1,149 to 154,O=C(O)c1ccccc1OCc1cccc(OCc2ccc3ccccc3n2)c1
2,154 to 156,O=[N+]([O-])c1ccc2[nH]cc(Cc3cccnc3)c2c1
3,128 to 130,CCOc1nn(-c2ccc(C(F)(F)F)cn2)cc1CCCOc1ccc(CCC(=O)O)c(OCc2ccccc2)c1
4,56 to 59,Cc1cccc2cccc(O)c12
5,152,CCn1cc(C=O)c2nc(N3CCN(Cc4ccccc4)CC3)ncc2c1=O
6,157 to 159,O=C(CCCCCN1CCN(c2ccccc2)CC1)Nc1ccc(O)cc1
7,133 to 135,FC(F)(F)c1ccc(-n2ccc3c(Cl)nccc32)c(Cl)c1
8,210 to 212,COc1cc(C(C)C)c2c(c1OC)S(=O)(=O)NC2=O
9,164 to 167,O=C1c2c(OCc3ccccc3)c(OCc3ccccc3)cc(OCc3ccccc3)c2-c2nn(CCNCCO)c3ccc(Cl)c1c23
10,224 to 226,O=C(Nc1ccccc1Oc1ccccc1-c1nnn[nH]1)c1ccc(OCc2ccc3ccccc3n2)cc1
11,145 to 147,Cc1ccn(-c2nc(C)c(C(=O)NCc3ccccc3)s2)c(=O)c1
12,128 to 130,O=C1CCCc2nc(-c3ccccc3)ccc21
13,212 to 213,O=C(O)C1=Cc2cc(-c3ccc(Cl)cc3)ccc2OC1C(F)(F)F (stereo not given)
14,124 to 126,CCOC1CCN(c2nnc(-c3ccc(C)cc3)c(-c3ccc(C)cc3)n2)CC1
15,118 to 125,NC(=C[N+](=O)[O-])NC1CCCCCC1
16,217 to 219,O=C1c2cccnc2N(N2CCCCCC2)C2=NCCN12
17,216 to 217,CCCCS(=O)(=O)NC1Cc2ccc(C3=NNC(=O)C(c4ccccc4)C3)cc2C1 (stereo not given)
18,216 to 217,CC1(C)CCC(C)(C)c2cc(C(=O)C(=O)Nc3ccc(C(=O)O)cc3)ccc21
19,98.5 to 101,CCCc1cn(C(C)(C)C(=O)N(C)C)nc1-c1ccccc1
